In patent US8017612B2, “Piperazine compound and use thereof as a HCV polymerase inhibitor” (priority 2006, dated 2011) one finds IC50 data, which are given here for 25 molecules.

The structures appear in SMILES notation.

In test [1] the target is T1, HCV polymerase (NS5B) type 1b (Hepatitis C virus genotype 1b, UniProt P26663).
T1 construct: a region encoding NS5B (J Virol 1991 March, 65(3), 1105-13, 544 amino acids after deletion of 47 amino acids on the C-terminal); 6xHis (C); made in house; host or cells: Escherichia coli
Kind of test: Assay of enzyme (HCV polymerase) inhibitory activity, type 1b enzyme. Type of test: biochemical, HCV BK strain (type 1b). As to conditions: HCV polymerase inhibitory activity (IC50), 1b, type 1b enzyme 0.5 μg/ml, 25° C., 60 min. The essentials: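 Polymerase activity was followed as radiolabelled UTP incorporation by E. coli-expressed, His-tagged NS5B of HCV type 1b lacking its last 47 residues. Conditions: 2 μM UTP, 50 μM other NTPs, Mg2+ buffer at pH 7.5, 25 °C for 60 min. Inhibition relative to compound-free reactions gave IC50.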

For test [2], the target named is T2, HCV polymerase (NS5B) type 1a (Hepatitis C virus genotype 1a, UniProt P26664).
T2 construct: made in house; host or cells: Escherichia coli (by the 'similar method' of the 1b enzyme)
Kind of test: Assay of enzyme (HCV polymerase) inhibitory activity, type 1a enzyme. The test is classed as biochemical, HCV type 1a (cloned from the blood of patients). Particulars: HCV polymerase inhibitory activity (IC50), 1a, type 1a enzyme 1.5 μg/ml, 25° C., 60 min. The essentials: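 IC50 values derive from radioactivity of newly synthesized RNA with versus without test compound. The enzyme was C-terminally truncated type 1a NS5B, 1.5 μg/ml, run 60 min at 25° C with 3H-UTP-labelled nucleotides.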

Regarding `CC(C)c1ccc(S(=O)(=O)N2CCN(C3=NCCN3)CC2C(=O)NCc2ccc(C(F)(F)F)cc2)cc1` (centres unmarked) [Example 103, 4-(4,5-dihydro-1H-imidazol-2-yl)-1-(4-isopropyl-benzenesulfonyl)-piperazine-2-carboxylic acid 4-trifluoromethyl-benzylamide], the IC50 in test [1] and in test [2] was over 1000 nM each time.

Take `CN(C)c1ccc(CNC(=O)C2CN(C(=O)CN3CCOCC3)CCN2S(=O)(=O)c2ccc(I)cc2)cc1` (centres unmarked) [Example 104, 1-(4-iodo-benzenesulfonyl)-4-(2-morpholin-4-yl-acetyl)-piperazine-2-carboxylic acid 4-dimethylamino-benzylamide]: the IC50 in test [1] and in test [2] was over 1000 nM throughout.

Take `CN(C)c1ccc(CNC(=O)C2CN(C(=O)CNCc3ccccc3)CCN2S(=O)(=O)c2ccc(I)cc2)cc1` (centres unmarked) [Example 105, 4-(2-benzylamino-acetyl)-1-(4-iodo-benzenesulfonyl)-piperazine-2-carboxylic acid 4-dimethylamino-benzylamide]: the IC50 in test [1] and in test [2] was over 1000 nM each time.

As for `COC(=O)c1ccc(S(=O)(=O)N2CCN(C(C)=O)CC2C(=O)NCc2ccc(C(F)(F)F)cc2)cc1` (centres unmarked) [Example 106, 4-[4-acetyl-2-(4-trifluoromethyl-benzylcarbamoyl)-piperazine-1-sulfonyl]-benzoic acid methyl ester], the IC50 in test [1] and in test [2] was over 1000 nM throughout.

`CC(=O)N1CCN(S(=O)(=O)c2ccc(C(=O)O)cc2)C(C(=O)NCc2ccc(C(F)(F)F)cc2)C1` (centres unmarked) [Example 107, 4-[4-acetyl-2-(4-trifluoromethyl-benzylcarbamoyl)-piperazine-1-sulfonyl]-benzoic acid]: the IC50 in test [1] and in test [2] was over 1000 nM in each case.

On to `CC(=O)N1CCN(S(=O)(=O)c2ccc(C(C)C)cc2)C(C(=O)NCc2ccc(-c3cnn(C)c3)cc2)C1` (centres unmarked) [Example 108, 4-acetyl-1-(4-isopropyl-benzenesulfonyl)-piperazine-2-carboxylic acid 4-(1-methyl-1H-pyrazol-4-yl)-benzylamide], for which the IC50 in test [1] and in test [2] was over 1000 nM in each case.

As to `CC(=O)N1CCN(S(=O)(=O)c2ccc(C(C)C)cc2)C(C(=O)NCc2ccc(N3CCCCC3)cc2)C1` (centres unmarked) [Example 109, 4-acetyl-1-(4-isopropyl-benzenesulfonyl)-piperazine-2-carboxylic acid 4-piperidin-1-yl-benzylamide], the IC50 in test [1] and in test [2] was over 1000 nM in each case.

Take `CCCN(CCC)CC(=O)N1CCN(S(=O)(=O)c2ccc(I)cc2)C(C(=O)NCc2ccc(N(C)C)cc2)C1` (centres unmarked) [Example 110, 4-(2-dipropylamino-acetyl)-1-(4-iodo-benzenesulfonyl)-piperazine-2-carboxylic acid 4-dimethylamino-benzylamide]: the IC50 in test [1] and in test [2] was over 1000 nM each time.

Turning to `CC(C)c1ccc(S(=O)(=O)N2CCN(C(N)=S)CC2C(=O)NCc2ccc(C(F)(F)F)cc2)cc1` (centres unmarked) [Example 111, 1-(4-isopropyl-benzenesulfonyl)-4-thiocarbamoyl-piperazine-2-carboxylic acid 4-trifluoromethyl-benzylamide], the IC50 in test [1] and in test [2] was over 1000 nM each time.

Consider `CC(C)c1ccc(S(=O)(=O)N2CCN(C3=NCCS3)CC2C(=O)NCc2ccc(C(F)(F)F)cc2)cc1` (centres unmarked) [Example 112, 4-(4,5-dihydro-thiazol-2-yl)-1-(4-isopropyl-benzenesulfonyl)-piperazine-2-carboxylic acid 4-trifluoromethyl-benzylamide], for which the IC50 in test [1] and in test [2] was over 1000 nM in each case.

Take `CN(C)c1ccc(CNC(=O)C2CN(C(=O)CCN3CCOCC3)CCN2S(=O)(=O)c2ccc(I)cc2)cc1` (centres unmarked) [Example 113, 1-(4-iodo-benzenesulfonyl)-4-(3-morpholin-4-yl-propionyl)-piperazine-2-carboxylic acid 4-dimethylamino-benzylamide]: the IC50 in test [1] and in test [2] was over 1000 nM throughout.

Turning to `CCCN(CCC)CCC(=O)N1CCN(S(=O)(=O)c2ccc(I)cc2)C(C(=O)NCc2ccc(N(C)C)cc2)C1` (centres unmarked) [Example 114, 4-(3-dipropylamino-propionyl)-1-(4-iodo-benzenesulfonyl)-piperazine-2-carboxylic acid 4-dimethylamino-benzylamide], the IC50 in test [1] and in test [2] was over 1000 nM in each case.

For `Cc1csc(N2CCN(S(=O)(=O)c3ccc(C(C)C)cc3)C(C(=O)NCc3ccc(C(F)(F)F)cc3)C2)n1` (centres unmarked) [Example 115, 1-(4-isopropyl-benzenesulfonyl)-4-(4-methyl-thiazol-2-yl)-piperazine-2-carboxylic acid 4-trifluoromethyl-benzylamide], the IC50 in test [1] and in test [2] was over 1000 nM throughout.

Take `CC(=O)N1CCN(S(=O)(=O)c2ccc(C(C)C)cc2)C(C(=O)NCc2ccc(-c3ccc(Cl)cc3)cc2)C1` (centres unmarked) [Example 116, 4-acetyl-1-(4-isopropyl-benzenesulfonyl)-piperazine-2-carboxylic acid (4′-chloro-biphenyl-4-ylmethyl)-amide]: the IC50 in test [1] and in test [2] was over 1000 nM throughout.

Consider `CC(=O)N1CCN(S(=O)(=O)c2ccc(C(C)C)cc2)C(C(=O)NCc2ccc(C(C)C)cc2)C1` (centres unmarked) [Example 117, 4-acetyl-1-(4-isopropyl-benzenesulfonyl)-piperazine-2-carboxylic acid 4-isopropyl-benzylamide], for which the IC50 in test [1] and in test [2] was 100 to 1000 nM each time.

In the case of `CC(=O)N1CCN(S(=O)(=O)c2ccc(C(C)C)cc2)C(C(=O)NCCc2ccccc2)C1` (centres unmarked) [Example 118, 4-acetyl-1-(4-isopropyl-benzenesulfonyl)-piperazine-2-carboxylic acid phenethyl-amide], the concentration for half-maximal inhibition (IC50) in test [1] and in test [2] was over 1000 nM throughout.

Take `CC(=O)N1CCN(S(=O)(=O)c2ccc(C(C)C)cc2)C(C(=O)NCc2cccc(C(F)(F)F)c2)C1` (centres unmarked) [Example 119, 4-acetyl-1-(4-isopropyl-benzenesulfonyl)-piperazine-2-carboxylic acid 3-trifluoromethyl-benzylamide]: the IC50 in test [1] and in test [2] was over 1000 nM each time.

In the case of `CC(=O)N1CCN(S(=O)(=O)c2ccc(C(C)C)cc2)C(C(=O)NCc2ccccc2C(F)(F)F)C1` (centres unmarked) [Example 120, 4-acetyl-1-(4-isopropyl-benzenesulfonyl)-piperazine-2-carboxylic acid 2-trifluoromethyl-benzylamide], the IC50 in test [1] and in test [2] was over 1000 nM throughout.

As to `CC(=O)N1CCN(S(=O)(=O)c2ccc(C(C)C)cc2)C(C(=O)NCc2cccc(OC(F)(F)F)c2)C1` (centres unmarked) [Example 121, 4-acetyl-1-(4-isopropyl-benzenesulfonyl)-piperazine-2-carboxylic acid 3-trifluoromethoxy-benzylamide], the IC50 in test [1] and in test [2] was over 1000 nM each time.

Take `CN(C)c1ccc(CNC(=O)C2CN(C(=O)CC3CCCCC3)CCN2S(=O)(=O)c2ccc(I)cc2)cc1` (centres unmarked) [Example 122, 4-(2-cyclohexyl-acetyl)-1-(4-iodo-benzenesulfonyl)-piperazine-2-carboxylic acid 4-dimethylamino-benzylamide]: the IC50 in test [1] and in test [2] was over 1000 nM in each case.

Consider `CC(C)c1ccc(S(=O)(=O)N2CCN(C(=O)c3ccccc3)CC2C(=O)NCc2ccc(C(F)(F)F)cc2)cc1` (centres unmarked) [Example 123, 4-benzoyl-1-(4-isopropyl-benzenesulfonyl)-piperazine-2-carboxylic acid 4-trifluoromethyl-benzylamide], for which the IC50 in test [1] and in test [2] was over 1000 nM throughout.

In the case of `CC(C)c1ccc(S(=O)(=O)N2CCN(C(=O)Cc3ccccc3)CC2C(=O)NCc2ccc(C(F)(F)F)cc2)cc1` (centres unmarked) [Example 124, 1-(4-isopropyl-benzenesulfonyl)-4-phenylacetyl-piperazine-2-carboxylic acid 4-trifluoromethyl-benzylamide], the IC50 in test [1] and in test [2] was over 1000 nM each time.

As to `CC(C)c1ccc(S(=O)(=O)N2CCN(C(=O)COc3ccccc3)CC2C(=O)NCc2ccc(C(F)(F)F)cc2)cc1` (centres unmarked) [Example 125, 1-(4-isopropyl-benzenesulfonyl)-4-(2-phenoxy-acetyl)-piperazine-2-carboxylic acid 4-trifluoromethyl-benzylamide], the IC50 in test [1] and in test [2] was over 1000 nM throughout.

`CC(=O)N1CCN(S(=O)(=O)c2ccc(C(C)C)cc2)C(C(=O)NCc2ccc(Oc3ccccc3)cc2)C1` (centres unmarked) [Example 126, 4-acetyl-1-(4-isopropyl-benzenesulfonyl)-piperazine-2-carboxylic acid 4-phenoxy-benzylamide]: the IC50 in test [1] and in test [2] was over 1000 nM in each case.

For `CC(=O)N1CCN(S(=O)(=O)c2ccc(C(C)C)cc2)C(C(=O)NCc2ccc(OC(C)C)cc2)C1` (centres unmarked) [Example 127, 4-acetyl-1-(4-isopropyl-benzenesulfonyl)-piperazine-2-carboxylic acid 4-isopropoxy-benzylamide], the IC50 in test [1] and in test [2] was over 1000 nM in each case.
